Data on 25 molecules can be found in patent US6927214B1 (Novo Nordisk A/S, priority 1999, dated 2005).

For the first series, the target named is T1, human glucagon receptor (Homo sapiens, UniProt P47871).
T1 construct: expressed in transfected cells
T1 sequence (P47871 26-477): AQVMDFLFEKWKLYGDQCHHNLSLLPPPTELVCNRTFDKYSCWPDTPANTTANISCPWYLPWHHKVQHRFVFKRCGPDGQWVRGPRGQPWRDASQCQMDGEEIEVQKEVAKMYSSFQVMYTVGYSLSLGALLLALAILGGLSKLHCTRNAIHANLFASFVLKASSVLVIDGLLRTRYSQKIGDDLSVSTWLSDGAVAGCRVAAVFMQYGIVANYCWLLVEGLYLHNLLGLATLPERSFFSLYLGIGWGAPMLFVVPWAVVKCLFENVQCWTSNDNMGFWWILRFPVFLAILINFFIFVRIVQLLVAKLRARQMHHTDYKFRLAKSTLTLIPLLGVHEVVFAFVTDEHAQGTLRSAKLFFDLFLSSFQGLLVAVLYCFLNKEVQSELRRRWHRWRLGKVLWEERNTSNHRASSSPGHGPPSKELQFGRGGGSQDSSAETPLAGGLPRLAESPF
In words: Stimulation of cAMP formation in a cell line expressing the cloned human glucagon receptor. In kind it is biochemical. The following applies: concentrations tested up to 100 μM. (Cyclic AMP is a second messenger, typically raised through Gs and lowered through Gi signalling.)
Consider `Cc1nnc(Sc2nc3cc(Cl)c(Cl)cc3nc2C(F)(F)F)s1` [Example 2, 6,7-Dichloro-2-trifluoromethyl-3-(5-methyl-1,3,4-thiadiazol-2-ylsulfanyl)quinoxaline], for which the “agonist activity (cAMP formation)” value is “no measurable activity”.

Test system in the next series: not given
Assay: not given
Conditions: not given
Broadly, the melting point is the temperature, or range, at which the solid turns liquid. As for `Cc1nnc(Sc2nc3ccc(C(=O)c4ccccc4)cc3nc2C(F)(F)F)s1` [Example 158, [2-(5-Methyl-[1,3,4]thiadiazol-2-ylsulfanyl)-3-trifluorophenylquinoxalin-6-yl]phenyl Methanone], the melting point is 160 to 162 °C.

In another series the target is T2, human GLP-1 receptor (Homo sapiens, UniProt P43220). Briefly: biochemical.
T2 sequence (P43220 24-463): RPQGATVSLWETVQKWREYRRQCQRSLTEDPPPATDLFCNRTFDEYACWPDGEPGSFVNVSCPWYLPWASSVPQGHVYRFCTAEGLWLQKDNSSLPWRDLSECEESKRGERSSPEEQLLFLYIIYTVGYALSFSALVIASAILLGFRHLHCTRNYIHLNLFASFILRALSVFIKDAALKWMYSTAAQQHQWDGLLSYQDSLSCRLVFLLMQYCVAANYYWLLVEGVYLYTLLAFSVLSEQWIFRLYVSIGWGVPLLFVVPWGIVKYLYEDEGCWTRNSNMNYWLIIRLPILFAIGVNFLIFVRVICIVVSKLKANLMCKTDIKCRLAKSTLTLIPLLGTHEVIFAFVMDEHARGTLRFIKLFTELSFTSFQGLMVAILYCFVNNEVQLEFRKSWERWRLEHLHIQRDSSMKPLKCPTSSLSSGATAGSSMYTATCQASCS
Conditions: not given
Broadly, the EC50 is the concentration that produces a half-maximal response. One may read the Emax as the size of the effect at its maximum, as opposed to the concentration needed. Turning to `CC(C)c1nc2cc(Cl)c(Cl)cc2nc1S(=O)(=O)c1cncn1C` [Example 65, 6,7-Dichloro-2-isopropyl-3-(1-methyl-1H-imidazol-5-ylsulfonyl)quinoxaline], the EC50 was found to be 650 nM and the Emax was 53%.

For `CCCc1nc2cc(Cl)c(Cl)cc2nc1S(C)(=O)=O` [Example 92, 6,7-Dichloro-2-(methylsulfonyl)-3-propylquinoxaline], the EC50 stood at 770 nM and the Emax came to 53%.

In the case of `CC(C)(C)Nc1nc2cc(Cl)c(Cl)cc2nc1S(C)(=O)=O` [Example 103, N-[6,7-Dichloro-3-(methylsulfonyl)-2-quinoxalinyl]N-tert-butylamine], the EC50 was 50 nM and the Emax amounted to 80%.

With `CS(=O)(=O)c1nc2cc(Cl)c(Cl)cc2nc1NC1CCCc2ccccc21` (stereo not shown) [Example 108, N-[6,7-Dichloro-3-(methylsulfonyl)-2-quinoxalinyl]-N-(1,2,3,4-tetrahydro-naphthalene-1-yl)amine], the EC50 came to 680 nM and the Emax turned out to be 54%.

Molecule `CCC(C)(C)Nc1nc2cc(Cl)c(Cl)cc2nc1S(C)(=O)=O` [Example 135, (6,7-Dichloro-3-(methylsulfonyl)═quinoxalin-2-yl)tert-pentylamine] had an EC50 of 290 nM and an Emax of 76%.

With `CC(C)Nc1nc2cc(Cl)c(Cl)cc2nc1S(=O)(=O)Cc1ccc(OC(F)F)cc1` [Example 136, (6,7-Dichloro-3-{[4-(difluoromethoxy)benzyl]sulfonyl}quinoxalin-2-yl)isopropylamine], the midpoint of the response, the EC50, lay at 820 nM and the Emax is 64%.

As for `CC(C)Sc1nc2cc(Cl)c(Cl)cc2nc1S(C)(=O)=O` [Example 137, 6,7-Dichloro-2-(isopropylsulfanyl)-3-(methylsulfonyl)quinoxaline], the EC50 came out at 660 nM and the Emax turned out to be 46%.

In turn, `Cn1ccnc1S(=O)(=O)c1nc2cc(Cl)c(Cl)cc2nc1NC(C)(C)C` [Example 138, (6,7-Dichloro-3-[(1-methyl-1H-imidazol-2-yl)sulfonyl]quinoxalin-2-yl)-tert-butylamine] had an EC50 of 540 nM and an Emax of 72%.

In the case of `O=[N+]([O-])c1cc2nc(-c3ccccc3)c(C(F)(F)F)nc2cc1[N+](=O)[O-]` [Example 145, 6,7-Dinitro-2-phenyl-3-trifluoromethylquinoxaline], the Emax at 0.33 µM came to 36%.

Take `O=[N+]([O-])c1cc2ncc(-c3ccc(C(F)(F)F)cc3)nc2cc1[N+](=O)[O-]` [Example 147, 6,7-Dinitro-2-(4-trifluoromethylphenyl)quinoxaline]: the Emax at 1 µM was 31%.

Take `FC(F)(F)c1nc2cc(Cl)c(Cl)cc2nc1Sc1nccs1` [Example 156, 6,7-Dichloro-2-(thiazol-2-ylsulfanyl)-3-trifluoromethyl-quinoxaline]: the Emax at 0.01 µM was 42%.

With `O=C(c1ccccc1)c1ccc2nc(Br)c(C(F)(F)F)nc2c1` [Example 157, (2-Bromo-3-trifluoromethyl-quinoxalin-6-yl)phenyl Methanone], the Emax at 3.3 µM worked out at 15%.

`CC(C)CCS(=O)(=O)c1nc2cc(Cl)ccc2nc1C(F)(F)F` [Example 169, 6-Chloro-3-(3-methylbutylsulfonyl)-2-trifluoromethyl-quinoxaline] showed an Emax at 1 µM of 19%.

`CC(C)CCS(=O)(=O)c1nc2ccc(Cl)cc2nc1C(F)(F)F` [Example 170, 6-Chloro-2-(3-methylbutyl-1-sulfonyl)-3-trifluoromethyl-quinoxaline] registered an Emax at 1 µM of 33%.

A further series addresses T2, human GLP-1 receptor. In words: Saturation experiments with labelled GLP-1 tracer on plasma membranes, with or without example 2. In kind it is binding. Further details: expressed in transfected cells; host or cells: BHK (baby hamster kidney) cells; plasma membranes prepared from them. The settings on record: 10 μM compound, saturation experiment.
For the molecule `Cc1nnc(Sc2nc3cc(Cl)c(Cl)cc3nc2C(F)(F)F)s1` [Example 2, 6,7-Dichloro-2-trifluoromethyl-3-(5-methyl-1,3,4-thiadiazol-2-ylsulfanyl)quinoxaline], the “effect on the affinity of the receptor for GLP-1” value was “changed the affinity of the receptor for GLP-1”.

The target in a further series is T2, human GLP-1 receptor.
Assay: not given
Further details: Emax: dose or concentration left out as unconfirmed.
Conditions: not given
Turning to `Cc1nnc(Sc2nc3cc(Cl)c(Cl)cc3nc2C(F)(F)F)s1` [Example 2, 6,7-Dichloro-2-trifluoromethyl-3-(5-methyl-1,3,4-thiadiazol-2-ylsulfanyl)quinoxaline], the response was half-maximal at 310 nM (EC50) and the Emax came out at 100%.

Regarding `Cc1nnc([S+]([O-])c2nc3cc(Cl)c(Cl)cc3nc2C(C)C)s1` (stereo not shown) [Example 6, 6,7-Dichloro-2-isopropyl-3-(5-methyl-1,3,4-thiadiazol-2-ylsulfinyl)quinoxaline], the EC50 is 170 nM and the maximal effect (Emax) is 94%.

`Cc1nnc(S(=O)(=O)c2nc3cc(Cl)c(Cl)cc3nc2C(C)C)s1` [Example 7, 6,7-Dichloro-2-isopropyl-3-(5-methyl-1,3,4-thiadiazol-2-ylsulfonyl)quinoxaline] displayed an EC50 of 78 nM and an Emax of 120%.

Molecule `CS(=O)(=O)c1nc2cc(Cl)c(Cl)cc2nc1C(F)(F)F` [Example 19, 6,7-Dichloro-2-methanesulfonyl-3-trifluoromethylquinoxaline] displayed an EC50 of 160 nM and an Emax of 120%.

Regarding `CC(C)S(=O)(=O)c1nc2cc(Cl)c(Cl)cc2nc1C(F)(F)F` [Example 20, 6,7-Dichloro-2-trifluoromethyl-3-isopropylsulfonylquinoxaline], a half-maximal effect (EC50) was put at 68 nM and the Emax stood at 140%.

In the case of `O=Cc1cc2cc(Cl)ccc2nc1Cl` [Example 25, 2,6-Dichloroquinoline-3-carbaldehyde], the Emax worked out at 15%.

Take `CSc1nc2ccc(Cl)cc2cc1C=O` [Example 29, 6-Chloro-2-methylsulfanylquinoline-3-carbaldehyde]: the Emax came out at 13%.

`Cc1nc2cc(Cl)ccc2nc1Cl` [Example 46, 2,6-Dichloro-3-methylquinoxaline]: the EC50 was greater than 33000 nM and the Emax worked out at 0%.

In turn, `COc1nc2ccc(Cl)cc2nc1Cl` [Example 47, 2,7-Dichloro-3-methoxyquinoxaline] gave an EC50 of 10000 nM and an Emax of 50%.

Consider `Cc1nc2cc(Cl)c(Cl)cc2nc1S(C)(=O)=O` [Example 56, 6,7-Dichloro-3-methyl-2-(methylsulfonyl)quinoxaline], for which the EC50 was found to be 78 nM and the Emax came to 130%.
